# Test results: ChEMBL document CHEMBL1275581, “Detection of the pandemic O25-ST131 human virulent Escherichia coli CTX-M-15-producing clone harboring the qnrB2 and aac(6')-Ib-cr genes in a dog” (2009)
# Columns and labels:
# Escherichia coli [1] = test: (§1) Antimicrobial activity against beta-lactamase CTX-M-15-producing fluoroquinolone-resistant Escherichia coli FMV5825 expressing qnrB2 and aac(6')-Ib-cr and harboring gyrA Ser83Ile and Asp87Asn mutant gene and ParC Ser80Ile and Glu84Val mutant gene obtained from dog with urinary tract infection by broth microdilution method; assay type: functional
# Escherichia coli [2] = test: Antimicrobial activity against Azide-resistant Escherichia coli J53 by broth microdilution method; assay type: functional
# Escherichia coli [3] = test: microbe, parasite or virus in culture; details: J53
# Escherichia coli [4] = test: as §1, with “method in presence of beta-lactamase inhibitor clavulanic acid” for “method”; assay type: functional; details: FMV5825, Urine
# Escherichia coli [5] = test: Antimicrobial activity against Azide-resistant Escherichia coli J53 transconjugant harboring Escherichia coli DH5alpha-5825 qnrB2 gene by broth microdilution method in presence of beta-lactamase inhibitor clavulanic acid; assay type: functional
# Escherichia coli [6] = test: Antimicrobial activity against Azide-resistant Escherichia coli J53 by broth microdilution method in presence of beta-lactamase inhibitor clavulanic acid; assay type: functional
# Escherichia coli [7] = test: Antimicrobial activity against Escherichia coli harboring qnr gene assessed as resistant isolate; assay type: functional
# Escherichia coli [8] = test: as §1, with “method in presence of beta-lactamase inhibitor Tazobactam” for “method”; assay type: functional; details: FMV5825, Urine
# Escherichia coli [9] = test: Antimicrobial activity against Azide-resistant Escherichia coli J53 transconjugant harboring Escherichia coli DH5alpha-5825 qnrB2 gene by broth microdilution method in presence of beta-lactamase inhibitor Tazobactam; assay type: functional
# Escherichia coli [10] = test: Antimicrobial activity against Azide-resistant Escherichia coli J53 by broth microdilution method in presence of beta-lactamase inhibitor Tazobactam; assay type: functional
Compound,"MIC (Escherichia coli [1]; FMV5825, Urine)",MIC (Escherichia coli [2]),MIC (Escherichia coli [3]),also measured
CC1(C)S[C@@H]2[C@H](NC(=O)[C@H](C(=O)O)c3ccsc3)C(=O)N2[C@H]1C(=O)O [TICARCILLIN],> 64 µg/mL,≤ 16 µg/mL,> 64 µg/mL,
C[C@H]1[C@H](NC(=O)/C(=N\OC(C)(C)C(=O)O)c2csc(N)n2)C(=O)N1S(=O)(=O)O [AZTREONAM],> 16 µg/mL,≤ 1 µg/mL,> 16 µg/mL,
CO/N=C(\C(=O)N[C@@H]1C(=O)N2C(C(=O)O)=C(COC(N)=O)CS[C@H]12)c1ccco1 [CEFUROXIME],> 16 µg/mL,1 µg/mL,> 16 µg/mL,
NCC[C@H](O)C(=O)N[C@@H]1C[C@H](N)[C@@H](O[C@H]2O[C@H](CN)[C@@H](O)[C@H](O)[C@H]2O)[C@H](O)[C@H]1O[C@H]1O[C@H](CO)[C@@H](O)[C@H](N)[C@H]1O [AMIKACIN],16 µg/mL,0.5 µg/mL,2 µg/mL,
C[C@@H](O)[C@H]1C(=O)N2C(C(=O)O)=C(SCCNC=N)C[C@H]12 [IMIPENEM ANHYDROUS],≤ 1 µg/mL,≤ 1 µg/mL,≤ 1 µg/mL,
CO[C@@]1(NC(=O)C2SC(=C(C(N)=O)C(=O)O)S2)C(=O)N2C(C(=O)O)=C(CSc3nnnn3C)CS[C@@H]21 (some centres not stated) [CEFOTETAN],≤ 16 µg/mL,≤ 16 µg/mL,≤ 16 µg/mL,
Cc1nnc(SCC2=C(C(=O)O)N3C(=O)[C@@H](NC(=O)Cn4cnnn4)[C@H]3SC2)s1 [CEFAZOLIN],> 16 µg/mL,≤ 16 µg/mL,> 16 µg/mL,
CO[C@@]1(NC(=O)Cc2cccs2)C(=O)N2C(C(=O)O)=C(COC(N)=O)CS[C@@H]21 [CEFOXITIN],≤ 4 µg/mL,≤ 4 µg/mL,≤ 4 µg/mL,
CC1(C)S[C@@H]2[C@H](NC(=O)[C@H](N)c3ccccc3)C(=O)N2[C@H]1C(=O)O [AMPICILLIN],> 16 µg/mL,≤ 4 µg/mL,> 16 µg/mL,
CO/N=C(\C(=O)N[C@@H]1C(=O)N2C(C(=O)[O-])=C(C[N+]3(C)CCCC3)CS[C@H]12)c1csc(N)n1,> 16 µg/mL,≤ 1 µg/mL,> 16 µg/mL,
CC(C)(O/N=C(\C(=O)N[C@@H]1C(=O)N2C(C(=O)[O-])=C(C[n+]3ccccc3)CS[C@H]12)c1csc(N)n1)C(=O)O [CEFTAZIDIME],128 µg/mL,≤ 1 µg/mL,64 µg/mL,MIC (Escherichia coli [4]): ≤ 0.25 µg/mL; MIC (Escherichia coli [5]): ≤ 0.25 µg/mL; MIC (Escherichia coli [6]): ≤ 0.25 µg/mL
O=C(O)c1cn(C2CC2)c2cc(N3CCNCC3)c(F)cc2c1=O [CIPROFLOXACIN],128 µg/mL,,,Activity (Escherichia coli [7]): 26%
GENTAMICIN,,0.25 µg/mL,,MIC (Escherichia coli [1]; Urine): 32 µg/mL
C[C@H]1COc2c(N3CCN(C)CC3)c(F)cc3c(=O)c(C(=O)O)cn1c23.C[C@H]1COc2c(N3CCN(C)CC3)c(F)cc3c(=O)c(C(=O)O)cn1c23.O [LEVOFLOXACIN],32 µg/mL,0.031 µg/mL,0.031 µg/mL,
COCC1=C(C(=O)O)N2C(=O)[C@@H](NC(=O)/C(=N\OC)c3csc(N)n3)[C@H]2SC1 [CEFPODOXIME],> 4 µg/mL,≤ 1 µg/mL,> 4 µg/mL,
CCN1CCN(C(=O)N[C@@H](C(=O)N[C@@H]2C(=O)N3[C@@H]2SC(C)(C)[C@@H]3C(=O)O)c2ccccc2)C(=O)C1=O [PIPERACILLIN],> 64 µg/mL,≤ 8 µg/mL,> 64 µg/mL,MIC (Escherichia coli [8]): ≤ 8 µg/mL; MIC (Escherichia coli [9]): ≤ 8 µg/mL; MIC (Escherichia coli [10]): ≤ 8 µg/mL
C[C@@H](O)[C@H]1C(=O)N2C(C(=O)O)=C(S[C@@H]3CN[C@H](C(=O)N(C)C)C3)[C@H](C)[C@H]12 [MEROPENEM],≤ 2 µg/mL,≤ 2 µg/mL,≤ 2 µg/mL,
CO/N=C(\C(=O)N[C@@H]1C(=O)N2C(C(=O)O)=C(COC(C)=O)CS[C@H]12)c1csc(N)n1 [CEFOTAXIME],> 64 µg/mL,≤ 1 µg/mL,> 64 µg/mL,MIC (Escherichia coli [4]): ≤ 0.25 µg/mL; MIC (Escherichia coli [5]): ≤ 0.25 µg/mL; MIC (Escherichia coli [6]): ≤ 0.25 µg/mL
CCn1cc(C(=O)O)c(=O)c2cc(F)c(N3CCNCC3)cc21 [NORFLOXACIN],256 µg/mL,0.062 µg/mL,0.5 µg/mL,
C[C@@H](O)[C@H]1C(=O)N2C(C(=O)O)=C(S[C@@H]3CN[C@H](C(=O)Nc4cccc(C(=O)O)c4)C3)[C@H](C)[C@H]12,≤ 0.5 µg/mL,≤ 0.5 µg/mL,≤ 0.5 µg/mL,
NC[C@H]1O[C@H](O[C@H]2[C@H](O)[C@@H](O[C@H]3O[C@H](CO)[C@@H](O)[C@H](N)[C@H]3O)[C@H](N)C[C@@H]2N)[C@H](N)C[C@@H]1O [TOBRAMYCIN],> 8 µg/mL,≤ 2 µg/mL,> 8 µg/mL,
CC1(C)S[C@@H]2[C@H](NC(=O)[C@H](N)c3ccc(O)cc3)C(=O)N2[C@H]1C(=O)O [AMOXICILLIN],,,,MIC (Escherichia coli [4]): 8 µg/mL; MIC (Escherichia coli [5]): 8 µg/mL; MIC (Escherichia coli [6]): 2 µg/mL
CCn1cc(C(=O)O)c(=O)c2ccc(C)nc21 [NALIDIXIC ACID],> 256 µg/mL,4 µg/mL,16 µg/mL,Activity (Escherichia coli [7]): 34%
